Results from the NIST ThermoML archive (doi:10.1021/je050089u).

Experiment: excess molar enthalpy (molar enthalpy of mixing); xn = mol fraction of the nth substance listed
Conditions: Fluid (supercritical or subcritical phases)

COC(=O)OC [dimethyl carbonate] + O=C=O
excess molar enthalpy [kcal/mol]
Conditions | 303.15 K | 308.15 K
5000 kPa, x2 = 0.1537 | – | -0.47
5000 kPa, x2 = 0.2239 | – | -0.66
5000 kPa, x2 = 0.2901 | – | -0.855
5000 kPa, x2 = 0.412 | – | -1.2
5000 kPa, x2 = 0.4682 | – | -1.36
5000 kPa, x2 = 0.5215 | – | -1.49
5000 kPa, x2 = 0.6205 | – | -1.73
5000 kPa, x2 = 0.7103 | – | -1.93
5000 kPa, x2 = 0.7189 | – | -1.93
5000 kPa, x2 = 0.7273 | – | -1.88
5000 kPa, x2 = 0.7923 | – | -1.4
5000 kPa, x2 = 0.8674 | – | -0.854
5000 kPa, x2 = 0.9364 | – | -0.391
5000 kPa, x2 = 0.9877 | – | -0.00526
5000 kPa, x2 = 0.9939 | – | 0.0268
5500 kPa, x2 = 0.1547 | – | -0.44
5500 kPa, x2 = 0.2917 | – | -0.836
5500 kPa, x2 = 0.3544 | – | -1.02
5500 kPa, x2 = 0.4138 | – | -1.16
5500 kPa, x2 = 0.47 | – | -1.31
5500 kPa, x2 = 0.5234 | – | -1.45
5500 kPa, x2 = 0.574 | – | -1.57
5500 kPa, x2 = 0.6222 | – | -1.69
5500 kPa, x2 = 0.6681 | – | -1.78
5500 kPa, x2 = 0.7119 | – | -1.89
5500 kPa, x2 = 0.7536 | – | -1.94
5500 kPa, x2 = 0.7698 | – | -1.96
5500 kPa, x2 = 0.7935 | – | -1.79
5500 kPa, x2 = 0.8317 | – | -1.46
5500 kPa, x2 = 0.8682 | – | -1.12
5500 kPa, x2 = 0.9368 | – | -0.498
6000 kPa, x2 = 0.1556 | – | -0.426
6000 kPa, x2 = 0.2931 | – | -0.79
6000 kPa, x2 = 0.4154 | – | -1.12
6000 kPa, x2 = 0.4717 | – | -1.25
6000 kPa, x2 = 0.5757 | – | -1.5
6000 kPa, x2 = 0.6238 | – | -1.6
6000 kPa, x2 = 0.7132 | – | -1.77
6000 kPa, x2 = 0.7549 | – | -1.84
6000 kPa, x2 = 0.7946 | – | -1.91
6000 kPa, x2 = 0.7947 | -1.9 | –
6000 kPa, x2 = 0.8326 | – | -1.93
6000 kPa, x2 = 0.8327 | -1.93 | –
6000 kPa, x2 = 0.869 | – | -1.5
6000 kPa, x2 = 0.8691 | -1.96 | –
6000 kPa, x2 = 0.8901 | -1.95 | –
6000 kPa, x2 = 0.897 | -1.94 | –
6000 kPa, x2 = 0.9039 | -1.82 | –
6000 kPa, x2 = 0.9372 | -1.18 | -0.715
6000 kPa, x2 = 0.9692 | – | -0.276
6000 kPa, x2 = 0.9693 | -0.547 | –
6500 kPa, x2 = 0.0807 | – | -0.219
6500 kPa, x2 = 0.1564 | – | -0.404
6500 kPa, x2 = 0.2275 | – | -0.582
6500 kPa, x2 = 0.2944 | – | -0.751
6500 kPa, x2 = 0.3574 | – | -0.928
6500 kPa, x2 = 0.4169 | – | -1.05
6500 kPa, x2 = 0.4733 | – | -1.2
6500 kPa, x2 = 0.5266 | – | -1.31
6500 kPa, x2 = 0.5772 | – | -1.41
6500 kPa, x2 = 0.6253 | – | -1.52
6500 kPa, x2 = 0.671 | – | -1.61
6500 kPa, x2 = 0.7145 | – | -1.67
6500 kPa, x2 = 0.756 | – | -1.75
6500 kPa, x2 = 0.7956 | – | -1.8
6500 kPa, x2 = 0.8335 | – | -1.83
6500 kPa, x2 = 0.8697 | – | -1.85
6500 kPa, x2 = 0.8837 | – | -1.84
6500 kPa, x2 = 0.9044 | – | -1.61
6500 kPa, x2 = 0.9376 | – | -1.02
6500 kPa, x2 = 0.9694 | – | -0.47
7000 kPa, x2 = 0.0812 | – | -0.208
7000 kPa, x2 = 0.1572 | – | -0.389
7000 kPa, x2 = 0.2285 | – | -0.551
7000 kPa, x2 = 0.2956 | – | -0.722
7000 kPa, x2 = 0.3587 | – | -0.859
7000 kPa, x2 = 0.4184 | – | -1
7000 kPa, x2 = 0.4747 | – | -1.11
7000 kPa, x2 = 0.528 | – | -1.23
7000 kPa, x2 = 0.5786 | – | -1.32
7000 kPa, x2 = 0.6266 | – | -1.42
7000 kPa, x2 = 0.6723 | – | -1.49
7000 kPa, x2 = 0.7157 | – | -1.56
7000 kPa, x2 = 0.7571 | – | -1.62
7000 kPa, x2 = 0.7966 | – | -1.65
7000 kPa, x2 = 0.8343 | – | -1.69
7000 kPa, x2 = 0.8703 | – | -1.71
7000 kPa, x2 = 0.9049 | – | -1.68
7000 kPa, x2 = 0.9249 | – | -1.66
7000 kPa, x2 = 0.9443 | – | -1.35
7000 kPa, x2 = 0.9507 | – | -1.24
7000 kPa, x2 = 0.9697 | – | -0.767
7500 kPa, x2 = 0.0816 | – | -0.178
7500 kPa, x2 = 0.1579 | – | -0.338
7500 kPa, x2 = 0.2294 | – | -0.499
7500 kPa, x2 = 0.2967 | – | -0.633
7500 kPa, x2 = 0.36 | – | -0.771
7500 kPa, x2 = 0.4197 | – | -0.885
7500 kPa, x2 = 0.476 | – | -0.996
7500 kPa, x2 = 0.5294 | – | -1.09
7500 kPa, x2 = 0.5799 | – | -1.17
7500 kPa, x2 = 0.6279 | – | -1.24
7500 kPa, x2 = 0.6734 | – | -1.32
7500 kPa, x2 = 0.7168 | – | -1.37
7500 kPa, x2 = 0.7581 | – | -1.42
7500 kPa, x2 = 0.7974 | – | -1.44
7500 kPa, x2 = 0.835 | – | -1.46
7500 kPa, x2 = 0.871 | – | -1.47
7500 kPa, x2 = 0.9053 | – | -1.48
7500 kPa, x2 = 0.9382 | – | -1.42
7500 kPa, x2 = 0.9698 | – | -1.24
7500 kPa, x2 = 0.9759 | – | -1.02
